For ten compounds, AC50 results are on record in ChEMBL document CHEMBL5291721, “A preclinical secondary pharmacology resource illuminates target-adverse drug reaction associations of marketed drugs” (Nat Commun, 2023).

Assay [1] concerns the target T1, Adenosine receptor A3 (Homo sapiens, UniProt P0DMS8).
T1 sequence (P0DMS8 whole entry): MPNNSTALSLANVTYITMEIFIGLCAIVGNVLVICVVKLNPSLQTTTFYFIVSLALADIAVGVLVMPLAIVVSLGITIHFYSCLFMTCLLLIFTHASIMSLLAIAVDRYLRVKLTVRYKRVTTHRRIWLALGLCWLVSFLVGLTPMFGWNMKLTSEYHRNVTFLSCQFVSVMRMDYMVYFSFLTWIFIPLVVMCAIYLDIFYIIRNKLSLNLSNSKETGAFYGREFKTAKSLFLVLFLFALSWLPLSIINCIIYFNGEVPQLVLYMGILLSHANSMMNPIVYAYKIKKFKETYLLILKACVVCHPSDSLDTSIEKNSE

Assay [2] addresses T2, 5-hydroxytryptamine receptor 2B (Homo sapiens, UniProt P41595). Format: functional, cell-based.
The target of assay [3] is T3, Muscarinic acetylcholine receptor M2 (Homo sapiens, UniProt P08172).
T3 sequence (P08172 whole entry): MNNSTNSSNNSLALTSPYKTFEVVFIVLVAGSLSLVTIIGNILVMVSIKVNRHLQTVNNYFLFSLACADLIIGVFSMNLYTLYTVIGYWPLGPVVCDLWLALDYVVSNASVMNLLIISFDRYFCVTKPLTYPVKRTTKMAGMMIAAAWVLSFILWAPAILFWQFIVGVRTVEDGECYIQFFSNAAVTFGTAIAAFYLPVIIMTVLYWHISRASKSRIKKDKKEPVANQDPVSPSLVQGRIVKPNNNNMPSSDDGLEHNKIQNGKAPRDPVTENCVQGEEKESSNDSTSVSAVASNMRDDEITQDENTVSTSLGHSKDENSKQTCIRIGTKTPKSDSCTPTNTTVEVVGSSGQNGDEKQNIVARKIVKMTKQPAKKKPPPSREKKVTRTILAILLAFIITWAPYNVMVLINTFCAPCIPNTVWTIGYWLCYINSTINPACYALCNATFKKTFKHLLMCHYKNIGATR
Format: functional, cell-based.

Assay [4] has as its target cGMP-inhibited 3',5'-cyclic phosphodiesterase 3A (Homo sapiens, UniProt Q14432). Format: functional.
Assay [5] addresses T4, B2 bradykinin receptor (Homo sapiens, UniProt P30411).
T4 sequence (P30411 whole entry): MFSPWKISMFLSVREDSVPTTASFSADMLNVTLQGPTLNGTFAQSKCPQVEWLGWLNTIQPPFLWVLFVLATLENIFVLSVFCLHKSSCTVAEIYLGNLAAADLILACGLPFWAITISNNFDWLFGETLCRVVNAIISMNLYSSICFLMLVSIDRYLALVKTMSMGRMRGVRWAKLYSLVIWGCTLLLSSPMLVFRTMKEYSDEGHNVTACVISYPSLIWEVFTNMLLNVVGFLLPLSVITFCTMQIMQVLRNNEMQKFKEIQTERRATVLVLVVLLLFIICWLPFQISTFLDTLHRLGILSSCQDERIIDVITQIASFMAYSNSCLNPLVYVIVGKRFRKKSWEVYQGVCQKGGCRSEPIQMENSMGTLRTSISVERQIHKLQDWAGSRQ

Assay [6] addresses Growth hormone secretagogue receptor type 1 (Homo sapiens, UniProt Q92847).
Assay [7] concerns the target Neuronal acetylcholine receptor subunit alpha-4 (Homo sapiens, UniProt P43681).
Assay [8] deals with T2, 5-hydroxytryptamine receptor 2B. It counts as functional, cell-based. The source holds these as a separate data set.
Assay [9] addresses Beta-2 adrenergic receptor (Homo sapiens, UniProt P07550).

A value given as a limit tells only on which side of the number the result lay.
Note: assay procedure not described here.

cGMP-inhibited 3',5'-cyclic phosphodiesterase 3A, sequence (Q14432 whole entry): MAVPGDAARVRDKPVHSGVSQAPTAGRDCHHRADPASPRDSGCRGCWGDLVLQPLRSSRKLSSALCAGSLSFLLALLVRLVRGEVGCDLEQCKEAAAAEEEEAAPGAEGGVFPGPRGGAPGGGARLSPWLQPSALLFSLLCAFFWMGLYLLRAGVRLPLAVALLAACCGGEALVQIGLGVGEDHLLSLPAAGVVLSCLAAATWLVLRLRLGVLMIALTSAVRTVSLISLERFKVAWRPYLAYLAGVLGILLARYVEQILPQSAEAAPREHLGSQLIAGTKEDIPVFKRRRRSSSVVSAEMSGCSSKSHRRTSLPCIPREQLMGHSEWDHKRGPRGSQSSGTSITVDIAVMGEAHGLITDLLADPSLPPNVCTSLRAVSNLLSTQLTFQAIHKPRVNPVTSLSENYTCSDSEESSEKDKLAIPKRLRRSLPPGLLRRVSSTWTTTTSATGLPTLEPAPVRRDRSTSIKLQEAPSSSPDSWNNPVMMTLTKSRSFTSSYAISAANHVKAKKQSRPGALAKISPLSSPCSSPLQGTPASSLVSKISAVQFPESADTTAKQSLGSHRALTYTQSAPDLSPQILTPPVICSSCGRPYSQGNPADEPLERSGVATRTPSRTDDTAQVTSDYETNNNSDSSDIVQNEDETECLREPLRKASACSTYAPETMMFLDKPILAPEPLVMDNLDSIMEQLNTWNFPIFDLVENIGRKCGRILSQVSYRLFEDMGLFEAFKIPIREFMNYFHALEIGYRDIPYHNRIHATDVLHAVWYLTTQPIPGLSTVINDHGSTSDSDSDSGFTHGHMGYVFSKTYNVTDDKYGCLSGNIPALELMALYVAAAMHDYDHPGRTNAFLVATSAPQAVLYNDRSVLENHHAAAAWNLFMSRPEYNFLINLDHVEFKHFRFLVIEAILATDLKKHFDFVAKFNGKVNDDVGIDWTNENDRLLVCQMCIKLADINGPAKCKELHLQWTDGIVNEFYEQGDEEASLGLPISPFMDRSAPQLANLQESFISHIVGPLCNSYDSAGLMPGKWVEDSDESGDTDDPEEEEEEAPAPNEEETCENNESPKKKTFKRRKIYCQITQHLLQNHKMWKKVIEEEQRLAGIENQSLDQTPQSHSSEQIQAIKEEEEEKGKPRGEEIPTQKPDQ
Neuronal acetylcholine receptor subunit alpha-4, sequence (P43681 whole entry): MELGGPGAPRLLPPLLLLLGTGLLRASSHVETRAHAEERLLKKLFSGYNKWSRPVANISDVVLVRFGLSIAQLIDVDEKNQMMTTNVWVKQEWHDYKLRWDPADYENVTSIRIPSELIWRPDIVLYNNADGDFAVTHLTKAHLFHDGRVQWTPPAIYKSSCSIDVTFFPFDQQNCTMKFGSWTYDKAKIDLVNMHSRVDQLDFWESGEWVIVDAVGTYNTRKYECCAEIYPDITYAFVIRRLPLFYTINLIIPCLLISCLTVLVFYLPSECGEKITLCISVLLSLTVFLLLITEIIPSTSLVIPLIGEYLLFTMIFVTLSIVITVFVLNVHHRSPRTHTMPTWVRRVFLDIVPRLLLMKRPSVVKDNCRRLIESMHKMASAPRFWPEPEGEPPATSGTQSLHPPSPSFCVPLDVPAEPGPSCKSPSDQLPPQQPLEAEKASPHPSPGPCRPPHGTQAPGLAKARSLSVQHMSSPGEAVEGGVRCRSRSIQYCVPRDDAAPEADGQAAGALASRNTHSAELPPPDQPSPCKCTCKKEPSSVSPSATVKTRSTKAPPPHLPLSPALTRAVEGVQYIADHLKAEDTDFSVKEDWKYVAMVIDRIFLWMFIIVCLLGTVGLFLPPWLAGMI
T2 sequence (P41595 whole entry): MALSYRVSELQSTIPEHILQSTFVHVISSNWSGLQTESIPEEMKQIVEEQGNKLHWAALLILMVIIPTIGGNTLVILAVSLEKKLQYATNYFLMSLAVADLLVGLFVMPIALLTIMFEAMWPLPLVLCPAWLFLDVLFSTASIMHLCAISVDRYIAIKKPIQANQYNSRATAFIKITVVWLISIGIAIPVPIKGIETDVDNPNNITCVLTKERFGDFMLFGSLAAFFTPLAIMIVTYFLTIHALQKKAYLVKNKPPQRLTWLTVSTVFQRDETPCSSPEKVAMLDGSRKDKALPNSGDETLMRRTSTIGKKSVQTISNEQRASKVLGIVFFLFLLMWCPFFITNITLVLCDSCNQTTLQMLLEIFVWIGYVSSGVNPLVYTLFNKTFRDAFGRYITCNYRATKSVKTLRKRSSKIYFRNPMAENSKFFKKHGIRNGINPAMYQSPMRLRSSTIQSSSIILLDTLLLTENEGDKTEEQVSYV
Growth hormone secretagogue receptor type 1, sequence (Q92847 whole entry): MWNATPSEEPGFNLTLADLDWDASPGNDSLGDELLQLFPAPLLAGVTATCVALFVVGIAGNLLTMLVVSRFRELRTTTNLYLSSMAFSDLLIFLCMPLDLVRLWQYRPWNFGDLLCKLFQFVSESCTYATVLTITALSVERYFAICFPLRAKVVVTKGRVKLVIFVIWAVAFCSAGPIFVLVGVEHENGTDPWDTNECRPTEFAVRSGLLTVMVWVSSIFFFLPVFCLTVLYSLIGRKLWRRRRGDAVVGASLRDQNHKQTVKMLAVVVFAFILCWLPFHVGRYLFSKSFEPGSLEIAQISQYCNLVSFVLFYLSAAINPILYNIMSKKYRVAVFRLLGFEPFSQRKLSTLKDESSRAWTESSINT
Beta-2 adrenergic receptor, sequence (P07550 whole entry): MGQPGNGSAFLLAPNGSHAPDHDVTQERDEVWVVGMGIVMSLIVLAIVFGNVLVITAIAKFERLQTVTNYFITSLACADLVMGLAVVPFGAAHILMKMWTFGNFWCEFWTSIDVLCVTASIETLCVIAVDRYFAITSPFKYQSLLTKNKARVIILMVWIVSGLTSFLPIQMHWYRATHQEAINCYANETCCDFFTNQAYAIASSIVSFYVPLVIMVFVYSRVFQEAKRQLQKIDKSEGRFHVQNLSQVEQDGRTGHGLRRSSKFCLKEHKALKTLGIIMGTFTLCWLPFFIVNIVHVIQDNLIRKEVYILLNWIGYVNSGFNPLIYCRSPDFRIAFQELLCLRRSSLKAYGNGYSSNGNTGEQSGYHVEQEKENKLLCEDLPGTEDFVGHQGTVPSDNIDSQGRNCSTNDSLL

By AC50 is commonly meant the concentration at which the activity in the assay is half-maximal. High values mean activity only at high concentration, low ones activity at low concentration. Take `CC(C)CN(C[C@@H](O)[C@H](Cc1ccccc1)NC(=O)O[C@H]1CCOC1)S(=O)(=O)c1ccc(N)cc1`: the AC50 was more than 30 µM in assay [1]; more than 10 µM in assay [2]; more than 10 µM in [3]; more than 30 µM in assay [4]; more than 30 µM in assay [5]; more than 30 µM in assay [6]. Also, the AC50 in assay [7] is more than 30 µM; in [8], more than 10 µM; in [9], more than 10 µM.
For `CN(Cc1ccc(C(C)(C)C)cc1)Cc1cccc2ccccc12` [BUTENAFINE], the AC50 in assay [1] was more than 10 µM; in assay [2], more than 10 µM; in [3], more than 10 µM; in [4], more than 30 µM; in assay [5], more than 10 µM; in assay [6], more than 10 µM. The AC50 in assay [7], in assay [8] and in [9] was more than 10 µM in each case.
Take `CC1CC(OC(=O)C(O)c2ccccc2)CC(C)(C)C1` (stereo not given) [CYCLANDELATE]: the AC50 in assay [1] was more than 10 µM; in [2], more than 10 µM; in [3], more than 10 µM; in assay [4], more than 30 µM; in [5], more than 10 µM; in assay [6], more than 10 µM. Also, the AC50 in [7], in assay [8] and in [9] was more than 10 µM throughout.
For `OCCN(CCO)c1nc(N2CCCCC2)c2nc(N(CCO)CCO)nc(N3CCCCC3)c2n1` [DIPYRIDAMOLE], the AC50 was 24.7 µM in [1]; 15 µM in assay [2]; 2 µM in assay [3]; more than 30 µM in [4]; more than 30 µM in assay [5]; more than 30 µM in assay [6]. In addition, the AC50 in assay [8] is more than 30 µM.
For the compound `CCC1(C)CC(=O)NC1=O` (stereo not given) [ETHOSUXIMIDE], the AC50 in assay [1] was more than 10 µM; in assay [2], more than 10 µM; in [3] it was more than 10 µM; in assay [4], more than 30 µM; in assay [5], more than 10 µM; in assay [6] it was more than 10 µM. For the same compound, the half-maximal activity concentration (AC50) in assay [7], in assay [8] and in assay [9] was more than 10 µM throughout.
`CC(=O)[C@@]1(O)CC[C@H]2[C@@H]3C[C@H](C)C4=CC(=O)C=C[C@]4(C)[C@@]3(F)[C@@H](O)C[C@@]21C` [FLUOROMETHOLONE]: the AC50 is more than 10 µM in assay [1]; more than 10 µM in assay [2]; more than 10 µM in [3]; more than 30 µM in assay [4]; more than 10 µM in assay [5]; more than 10 µM in [6]. For the same compound, the AC50 in [7], in assay [8] and in [9] was more than 10 µM throughout.
For `N=C(N)NC(=O)Cc1c(Cl)cccc1Cl` [GUANFACINE], the AC50 was more than 30 µM in assay [1]; 0.358 µM in assay [2]; more than 30 µM in assay [3]; more than 30 µM in assay [4]; more than 30 µM in assay [5]; more than 30 µM in [6]. The AC50 in assay [7] and in [9] was more than 10 µM each time.
As for `CC1Cc2ccccc2N1NC(=O)c1ccc(Cl)c(S(N)(=O)=O)c1` (stereo not given) [INDAPAMIDE], the AC50 in assay [1] was more than 30 µM; in assay [2] it was more than 10 µM; in [3] it was more than 10 µM; in assay [4], more than 10 µM; in [5], more than 30 µM; in assay [6] it was more than 30 µM. The AC50 in assay [7], in assay [8] and in [9] was more than 10 µM in each case.
For the compound `CC(=O)N1CCN(c2ccc(OCC3COC(Cn4ccnc4)(c4ccc(Cl)cc4Cl)O3)cc2)CC1` (stereo not given) [KETOCONAZOLE], the AC50 was 17.7 µM in assay [1]; more than 10 µM in assay [2]; more than 30 µM in assay [4]; more than 10 µM in [5]; more than 10 µM in [6]; more than 10 µM in assay [7]. For the same compound, the AC50 in assay [8] was 15 µM; in [9], more than 10 µM.
For the compound `CC(C)(C)NCC(O)COc1cccc2c1CC(O)C(O)C2` (stereo not given) [NADOLOL], the AC50 was more than 10 µM in assay [1]; more than 10 µM in assay [2]; more than 10 µM in [3]; more than 30 µM in [4]; more than 10 µM in assay [5]; more than 10 µM in assay [6]. Also, the AC50 in assay [7] and in [8] was more than 10 µM in each case.
